# Values quoted from earlier work as cited in patent US20210386733A1, “LYSINE-SPECIFIC HISTONE DEMETHYLASE INHIBITORS FOR THE TREATMENT OF MYELOPROLIFERATIVE NEOPLASMS” (Imago Biosciences, Inc., priority 2019, published 2021).
# Test system: primary myelofibrosis patients
# Details: 50 to 100 mg/day in combination with prednisone; cited from earlier work
smiles,measurement,value
O=C1CCC(N2C(=O)c3ccccc3C2=O)C(=O)N1 (centres unmarked) [Thalidomide],patients with improved anemia and thrombocytopenia,approximately 60%
same,patients with reduced spleen size,approximately 20%
